Experimental data as given in patent US12595269B2, “Morpholine-like monoamine releasers” (Solvonis Therapeutics Ireland Holdings Limited, priority 2022, dated 2026).
Read-outs that look alike come from different tables or passages of the source.

Assay: Pharmacokinetic and brain penetration study, intravenous and oral administration in rats
Type: in vivo
Conditions: rat; for concentration at 8 h: read-out: Clast; for Vd: read-out: Vss
Experimental: Methods and Procedure: The study was conducted in agreement with procedures to assure data integrity and GLP principles. Three experimental groups, as outlined below, were included in the study:
Group 1: Exemplary compound 522A was administered via the IV route to three rats at a target dose level of 0.5 mg/kg. Blood and brain samples were collected at 2h after IV administration.
Group 2: Exemplary compound 522A was administered via the IV route to three rats (brain penetration group) at a target dose level of 0.5 mg/kg. Blood and brain samples were collected at 2h after IV administration.
Group 3: Exemplary compound 522A was orally administered to three rats at a target dose level of 1 mg/kg. Blood samples were collected up to 24h after oral administration.
All test formulations were prepared on the day of administration prior to dosing, stored at room temperature, and used as soon as possible. Formulations were prepared and administered by volume for both IV and oral dosing. Actual body weights were determined on the day of dose administration, and the dose volumes were adjusted to the weight of the animal at the time of dose administration.
Blood was collected into K3 EDTA tubes at each of the following time points post-administration: • Group 1 (ITS): 0.083, 0.33, 1, 2, 4, 6, 8, and 24 hours after dosing • Group 2 (ITS): 2 hours after dosing for terminal brain analysis • Group 3 (Oral): 0.250, 0.5, 1, 2, 4, 6, 8, and 24 hours after dosing
All blood samples were thoroughly but gently mixed following collection and then placed on wet ice. Within 0.5 h of collection, blood was centrifuged (3000 g for 10 minutes at approximately 4° C.). Within 0.5 hours, 20 μL of each plasma sample was transferred into micronic tubes containing 80 μL of 0.1N Hepes buffer (pH 7.0-7.5). Residual plasma was transferred in micronic tubes as a second aliquot.
Brain specimens were diluted with 4 volumes of 0. IN Hepes buffer and homogenized using the Precellys system. Blood and brain samples were assayed using an optimized method based on protein precipitation with acetonitrile followed by HPLC/MS-MS analysis. Given the unknown stability of analytes in blood and brain, Calibration standards (CS) and Quality control samples (QC) were prepared in blood and brain samples on the day of dosing and stored together with study samples. It is assumed this procedure accounted for any possible analyte degradation.
Study samples, CS, QC, and blanks were spiked with an internal standard (IS), to improve the precision of the assay. Study samples were analyzed together with CS, QC and blank samples (including double blanks). From the calibration curve, the linear range of the analytical method was determined and the lower/upper limits of quantitation were specified.
The results of blood and brain specimens were subjected to non-compartmental pharmacokinetic analysis using Phoenix WinNonlin 6.3, with the following parameters reported: Calculated concentration of test items in the corresponding formulation (expressed as mg/mL), dose levels (expressed as mg/kg) for each compound, actual collection times (expressed as hh: mM), blood concentrations (expressed as ng/ml) for each compound, brain concentrations (expressed as ng/g) for each compound, PK parameters (iv: Cmax, AUC, CLp, Vss, t1/2, if applicable; oral (po): Cmax, tmax, AUC, F %, Fa %, Eh, AUC BB ratio, if applicable) for each compound, and abnormal clinical signs and relevant findings, if any.

[1] = plasma, iv, 0.5 mg/kg, 0.5 mg/kg (Table 8)
[2] = plasma, iv, 0.5 mg/kg, 0.5 mg/kg (Table 9)
[3] = plasma, iv, 0.5 mg/kg, IV, 0.5 mg/kg (Table 8)
[4] = plasma, iv, 0.5 mg/kg, IV, 0.5 mg/kg (Table 9)

## Clc1ccc(C23CNC(CO2)C3)cc1Cl (stereo not shown) [522A, 1-(3,4-dichlorophenyl)-2-oxa-5-azabicyclo[2.2.1]heptane]
Brain and blood, 0.5 mg/kg, two hours after IV administration, read-out: concentration ratio of unbound drug in brain to blood (kp, uu)
  Kp uu at 2 h: 0.77
Brain and plasma, 0.5 mg/kg, two hours after IV administration, read-out: mean brain-to-plasma ratio
  Kp at 2 h: 4.96
plasma, IV, 0.5 mg/kg (Table 8)
  Tmax: 0.08 h
plasma, oral (PO), 1 mg/kg
  Tmax: 2 h
plasma, oral (PO), 1 mg/kg versus IV
  bioavailability: 30.8%
IV, 0.5 mg/kg (Table 8)
  Tlast: 8 h
IV, 0.5 mg/kg (Table 9)
  Tlast: 8 h
brain, iv, 0.5 mg/kg, two hours after IV administration, 0.5 mg/kg, read-out: free concentration in the brain
  concentration at 2 h: 42.8 nM
brain, iv, 0.5 mg/kg, two hours after IV administration, 0.5 mg/kg, read-out: total concentration in the brain
  concentration at 2 h: 1930 nM
Oral (PO), 1 mg/kg
  Tlast: 8 h
[1]
  AUC(0-inf): 1480 ng·h/mL
  AUC(0-t): 1460 ng·h/mL
  Cmax: 1890 ng/mL
  clearance: 5.71 mL/min/kg
  half-life: 1.36 h
[2]
  AUC(0-inf): 799 ng·h/mL
  AUC(0-t): 772 ng·h/mL
  Cmax: 878 ng/mL
  clearance: 11.6 mL/min/kg
  half-life: 1.65 h
[3]
  concentration at 8 h: 9.32 ng/mL
  Vd: 0.411 L/kg
[4]
  concentration at 8 h: 10.6 ng/mL
  Vd: 1.48 L/kg
plasma, iv, 0.5 mg/kg, two hours after IV administration, 0.5 mg/kg, read-out: free concentration in plasma
  concentration at 2 h: 71.3 nM
plasma, iv, 0.5 mg/kg, two hours after IV administration, 0.5 mg/kg, read-out: total plasma concentration
  concentration at 2 h: 594 nM
plasma, po, 1 mg/kg, oral (PO)
  AUC(0-inf): 509 ng·h/mL
  AUC(0-t): 442 ng·h/mL
  Cmax: 102 ng/mL
  half-life: 2.42 h
plasma, po, 1 mg/kg, oral (PO), 1 mg/kg
  concentration at 8 h: 19.3 ng/mL
